We go through four compounds from patent publication US11932626B2, “2-pyrimidone analogs as potent antiviral agents against Alphaviruses” (priority 2020, dated 2024).

Molecules are shown by their SMILES. Some results are limits rather than exact numbers.

The test system of one series is CHIKV. Description: CHIKV virus titer reduction (VTR) assay in NHDF cells. The series is classed as cell-based. To be noted: Chikungunya virus; for log reduction at 10 µM: CHIKV titer reduction at 10 μM, normal human dermal fibroblasts (NHDF) cells; for EC90: effective concentration of 90% inhibition of virus in a VTR assay, NHDF cells.
Series [1] concerns CHIKV linked NanoLuc luciferase reporter. Description: microbe, parasite or virus in culture. It is filed as cell-based. To be noted: Chikungunya virus, read-out: CHIKV EC50.
In a further series the test system is VEEV. Description: microbe, parasite or virus in culture. To be noted: Venezuelan equine encephalitis virus, NHDF; for EC90: read-out: VEEV EC90; for log reduction at 10 µM: read-out: VEEV VTR. It is filed as cell-based.
In the next series the test system is VEEV (TC-83). Nature of the series: microbe, parasite or virus in culture. The series is classed as cell-based. To be noted: Venezuelan equine encephalitis virus, read-out: VEEV EC50.
The next series can be described thus: in vitro. To be noted: human.
The subject of series [2] is Chikungunya virus (CHIKV) strain SL15649. Description: CHIKV-infected mice, 5 days oral treatment: tissue viral loads.
Series [3] shares this test system. Description: CHIKV-infected mice, 10 days oral treatment: footpad swelling and viremia.

On to `O=C(COc1cc[nH]c(=O)n1)NC12CC3CC(CC(C3)C1)C2` [Compound No. 7, N-(Adamantan-1-Yl)-2-((2-Oxo-1,2-Dihydropyrimidin-4-Yl)Oxy)Acetamide], for which the log reduction at 10 µM is 3.68 in the series on CHIKV and 1.79 in the series on VEEV. The EC90 (as a rule, the concentration needed for an effect of 90%) with CHIKV was determined as 0.7 µM; in the series on VEEV, 1.1 µM. The EC50 (commonly the concentration at which the effect is half-maximal) was 3.2 µM in series [1] and 38.8 µM in the series on VEEV (TC-83). In the series “in vitro”, the CC50 was > 40 µM. Also, the Adverse toxicity result in series [2] (mice treated three times per day for 5 days per os) and in series [3] (mice treated three times per day for 10 days per os) was “No adverse toxicity was observed” in each case. Also, the “Infectious viral loads in Ipsilateral ankle” value in series [2] (mice, 40 mg/kg 3× daily p.o., 5 dpi, p<0.0001) is given as “reduced infectious viral loads”. Besides, the “Infectious viral loads in Contralateral ankle” value in series [2] (mice, 40 mg/kg 3× daily p.o., 5 dpi, p=0.0009) is on record as “reduced infectious viral loads”. Also, the “Footpad swelling in the ipsilateral foot” value in series [3] (mice, 40 mg/kg 3× daily p.o., days 3-8, compared to vehicle treated mice) was “reduced swelling in the ipsilateral foot at days 3, 4, 5, 6, 7, and 8”. Besides, the “Viral loads in serum” value in series [3] (mice, 40 mg/kg 3× daily p.o., serum at 3 days post infection, p=0.0003) is “did not have detectable viral loads in serum samples”. Further, in series [3] (mice, per os three times per day), the Tissue distribution result was “distributed to a number of tissue types including joints and muscles”.
For `O=C(COc1nc(=O)[nH]c(OCCO)c1F)NC12CC3CC(CC(C3)C1)C2` [compound 50, N-(adamantan-1-yl)-2-((5-fluoro-6-(2-hydroxyethoxy)-2-oxo-1,2-dihydropyrimidin-4-yl)oxy)acetamide], the log reduction at 10 µM in the series with CHIKV came to 0; in the series with VEEV, 0.5. Further, the EC90 in the series on CHIKV and in the series on VEEV was > 10 µM in each case. In addition, the values for the EC50 (in series [1]; with VEEV (TC-83)) were 25.4 µM and > 40 µM, respectively. Further, the CC50 in the series “in vitro” was > 40 µM.
With `CC(C)(C)COc1cc(OCC(=O)NC23CC4CC(CC(C4)C2)C3)nc(=O)[nH]1` [compound 51, N-(Adamantan-1-Yl)-2-((6-(Neopentyloxy)-2-Oxo-1,2-Dihydropyrimidin-4-Yl)Oxy)Acetamide], the log reduction at 10 µM is 3.77 with CHIKV and 3.85 in the series with VEEV. Besides, the EC90 with CHIKV stood at 0.75 µM; with VEEV it was 0.1 µM. For the same compound, the EC50 was 7.43 µM in series [1] and > 40 µM in the series with VEEV (TC-83). Moreover, the CC50 in the series “in vitro” is > 40 µM.
Turning to `COc1cc(OCC(=O)NC23CC4CC(CC(C4)C2)C3)nc(=O)[nH]1` [compound 36, N-(adamantan-1-yl)-2-((6-methoxy-2-oxo-1,2-dihydropyrimidin-4-yl)oxy)acetamide], the log reduction at 10 µM in the series on CHIKV was determined as 4.56; in the series with VEEV, 0.63. Further, the EC90 was 0.23 µM with CHIKV and > 10 µM in the series on VEEV. For the same compound, the EC50 in series [1] was 1.14 µM; in the series with VEEV (TC-83) it was > 40 µM. Also, the CC50 in the series “in vitro” is > 40 µM.
